Assay results taken from PubChem BioAssay AID330 (DTP/NCI, 2004).
Several values for one entry are separate records, joined by “and”; a condition that tells them apart may be missing. Equal values may be shown once. Inconclusive results and toxic doses are left out. How the source made its calls: active means survival T/C of 150% or more; inactive means T/C below 125% in these data. Peptide text beside a SMILES is read from it.

System: P388 leukemia ip, CD2F1 mice, survival T/C
Assay: NCI In Vivo Anticancer Drug Screen. Data for tumor model P388 Leukemia (intraperitoneal) in CD2F1 (CDF1) mice
Conditions: endpoint: median survival time, higher = longer survival
Outline: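 Mice carrying the transplanted tumor received test compound or vehicle. Survival was recorded in each group, and the value is the treated-group measurement divided by that of the vehicle-treated control group.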

[1] = dose: 60.0 mg/kg/injection, schedule: Q01DX005 (ip), vehicle: saline with Tween-80
[2] = dose: 120.0 mg/kg/injection, schedule: Q01DX005 (ip), vehicle: saline with Tween-80
[3] = dose: 240.0 mg/kg/injection, schedule: Q01DX005 (ip), vehicle: saline with Tween-80
[4] = dose: 50.0 mg/kg/injection, schedule: Q01DX009 (ip), vehicle: saline
[5] = dose: 50.0 mg/kg/injection, schedule: Q01DX005 (ip), vehicle: Klucel (hydroxypropylcellulose) (HPC)
[6] = dose: 100.0 mg/kg/injection, schedule: Q01DX005 (ip), vehicle: Klucel (hydroxypropylcellulose) (HPC)
[7] = dose: 200.0 mg/kg/injection, schedule: Q01DX005 (ip), vehicle: Klucel (hydroxypropylcellulose) (HPC)
[8] = dose: 50.0 mg/kg/injection, schedule: Q01DX005 (ip), vehicle: saline with Tween-80
[9] = dose: 100.0 mg/kg/injection, schedule: Q01DX005 (ip), vehicle: saline with Tween-80
[10] = dose: 200.0 mg/kg/injection, schedule: Q01DX005 (ip), vehicle: saline with Tween-80
[11] = dose: 100.0 mg/kg/injection, schedule: Q04DX003 (ip), vehicle: saline
[12] = dose: 200.0 mg/kg/injection, schedule: Q04DX003 (ip), vehicle: saline
[13] = dose: 100.0 mg/kg/injection, schedule: Q04DX002 (ip), vehicle: saline
[14] = dose: 200.0 mg/kg/injection, schedule: Q04DX002 (ip), vehicle: saline
[15] = dose: 400.0 mg/kg/injection, schedule: Q04DX002 (ip), vehicle: saline
[16] = dose: 12.5 mg/kg/injection, schedule: Q01DX009 (ip), vehicle: Klucel (hydroxypropylcellulose) (HPC)
[17] = dose: 25.0 mg/kg/injection, schedule: Q01DX009 (ip), vehicle: Klucel (hydroxypropylcellulose) (HPC)
[18] = dose: 50.0 mg/kg/injection, schedule: Q01DX009 (ip), vehicle: Klucel (hydroxypropylcellulose) (HPC)

Measured: T/C

CC1(C)CC(=O)C2C(C1)OC1CC(C)(C)CC(=O)C1C2c1ccc2c(c1)OCO2 (stereo not given)
inactive: [1] 104 % of control | [2] 100 % of control | [3] 97 % of control

O=C(O)C1C[n+]2ccccc2O1 (stereo not given)
inactive: dose: 12.5 mg/kg/injection, schedule: Q01DX009 (ip), vehicle: saline 100 % of control | dose: 12.5 mg/kg/injection, schedule: Q04DX003 (ip), vehicle: saline 91 % of control | dose: 25.0 mg/kg/injection, schedule: Q01DX009 (ip), vehicle: saline 100 % of control | dose: 25.0 mg/kg/injection, schedule: Q04DX003 (ip), vehicle: saline 100 % of control | [4] 109 % of control | dose: 50.0 mg/kg/injection, schedule: Q04DX003 (ip), vehicle: saline 95 % of control

CCC(C)C(NC(=O)C(N)CCCN=C(N)N)C(=O)O (stereo not drawn) (H-Arg-Ile-OH; configuration not given here)
inactive: [5] 98 % of control | [6] 100 % of control | [7] 101 % of control

C/C(=C\c1cc(Cl)ccc1OCC(=O)O)[N+](=O)[O-]
inactive: dose: 50.0 mg/kg/injection, schedule: Q01DX001 (ip), vehicle: saline with Tween-80 108 % of control and 116 % of control | dose: 100.0 mg/kg/injection, schedule: Q01DX001 (ip), vehicle: saline with Tween-80 121 % of control and 96 % of control | dose: 200.0 mg/kg/injection, schedule: Q01DX001 (ip), vehicle: saline with Tween-80 121 % of control | dose: 400.0 mg/kg/injection, schedule: Q01DX001 (ip), vehicle: saline with Tween-80 115 % of control

CN(/N=C/c1ccccc1)C(N)=Nc1ccccc1
inactive: [8] 119 % of control | [9] 107 % of control | [10] 104 % of control

CC(C)OC(=O)C1(N)CCCC1
inactive: [4] 97 % of control | dose: 100.0 mg/kg/injection, schedule: Q01DX009 (ip), vehicle: saline 87 % of control | [11] 95 % of control | [12] 104 % of control

CC(=O)Nc1ccc(N)cc1C
inactive: [13] 96 % of control | [14] 97 % of control | [15] 97 % of control

CCCC1OC1(CC)COC(=O)NC (stereo not given)
inactive: [8] 100 % of control | [9] 101 % of control | [10] 117 % of control

CC(C)(O)Cn1ccccc1=O
inactive: [11] 98 % of control | [12] 97 % of control | dose: 400.0 mg/kg/injection, schedule: Q04DX003 (ip), vehicle: saline 104 % of control

O=c1oc(-c2cccc(-c3nc4c(c(=O)o3)CCS4)c2)nc2c1CCS2
inactive: [5] 97 % of control | [6] 100 % of control | [7] 91 % of control

NC1C(=O)NC(=O)NC1=O
inactive: dose: 25.0 mg/kg/injection, schedule: Q01DX005 (ip), vehicle: Klucel (hydroxypropylcellulose) (HPC) 96 % of control | [5] 96 % of control | [6] 98 % of control | [7] 100 % of control | dose: 400.0 mg/kg/injection, schedule: Q01DX005 (ip), vehicle: Klucel (hydroxypropylcellulose) (HPC) 105 % of control

Cc1cc2c(cc1C)C(O)CCC(=O)N2 (stereo not given)
inactive: [1] 95 % of control | [2] 91 % of control | [3] 87 % of control

CCCCCCCOc1ccc(OCCCC[N+]2(CC)CCCCC2)cc1
inactive: dose: 1.56 mg/kg/injection, schedule: Q01DX009 (ip), vehicle: saline 103 % of control | dose: 3.12 mg/kg/injection, schedule: Q01DX009 (ip), vehicle: saline 100 % of control | dose: 6.25 mg/kg/injection, schedule: Q01DX009 (ip), vehicle: saline 102 % of control

C/C(=N\NC(=S)N1CCCCCC1)c1cccc(C)n1
inactive: dose: 12.5 mg/kg/injection, schedule: Q01DX005 (ip), vehicle: saline with Tween-80 110 % of control | dose: 25.0 mg/kg/injection, schedule: Q01DX005 (ip), vehicle: saline with Tween-80 109 % of control | [8] 120 % of control

CCCC[N+]1(C)CCC(OC(=O)C(O)(c2ccccc2)C2CCCC2)C1 (stereo not given)
inactive: [16] 95 % of control | [17] 90 % of control | [18] 98 % of control and 89 % of control

N=C1N=Nc2nc(C(C(=O)c3cccc([N+](=O)[O-])c3Cl)c3nc4n(c3O)C(=N)N=N4)c(O)n21 (stereo not given)
inactive: [1] 106 % of control | [2] 105 % of control | [3] 106 % of control

Cc1nc(C(Cl)(Cl)Cl)[nH]c(=O)c1SCCO
inactive: dose: 50.0 mg/kg/injection, schedule: Q01DX005 (ip), vehicle: distilled water + alcohol 101 % of control and 108 % of control | dose: 100.0 mg/kg/injection, schedule: Q01DX005 (ip), vehicle: distilled water + alcohol 105 % of control and 120 % of control | dose: 200.0 mg/kg/injection, schedule: Q01DX005 (ip), vehicle: distilled water + alcohol 114 % of control

O=[N+]([O-])c1ccccc1OCC1CO1 (stereo not given)
inactive: [17] 106 % of control | [18] 105 % of control | dose: 100.0 mg/kg/injection, schedule: Q01DX009 (ip), vehicle: Klucel (hydroxypropylcellulose) (HPC) 105 % of control

CCOC(=O)/C(C#N)=C(/SC)N1CC1
inactive: [16] 100 % of control | [17] 93 % of control | [18] 110 % of control and 90 % of control

CCCCCCCC(=O)OOC(C)(C)C
inactive: [1] 105 % of control | [2] 105 % of control | [3] 108 % of control

CN(C)CCCC1(c2cccc(Cl)c2)SC(C)(C)c2ccccc21 (stereo not given)
inactive: dose: 25.0 mg/kg/injection, schedule: Q01DX001 (ip), vehicle: saline 97 % of control | dose: 50.0 mg/kg/injection, schedule: Q01DX001 (ip), vehicle: saline 93 % of control

CCOC(=O)NNS(=O)(=O)CCC(NC(=O)OCc1ccccc1)C(=O)OCc1ccccc1 (stereo not given)
inactive: dose: 12.5 mg/kg/injection, schedule: Q01DX009 (ip), vehicle: other 96 % of control | dose: 25.0 mg/kg/injection, schedule: Q01DX009 (ip), vehicle: other 104 % of control | dose: 50.0 mg/kg/injection, schedule: Q01DX009 (ip), vehicle: other 104 % of control | dose: 100.0 mg/kg/injection, schedule: Q01DX009 (ip), vehicle: other 104 % of control | dose: 200.0 mg/kg/injection, schedule: Q01DX009 (ip), vehicle: other 104 % of control

CC(=O)C(C(C)=O)=[Se](c1ccccc1)c1ccccc1
inactive: [13] 99 % of control | [14] 100 % of control | [15] 99 % of control

CCOC(=O)c1cnc(SC)n(-c2ccc(Cl)cc2)c1=O
inactive: [5] 100 % of control | [6] 100 % of control | [7] 108 % of control

CNC1CCCc2c(O)cccc21 (stereo not given)
inactive: dose: 50.0 mg/kg/injection, schedule: Q04DX003 (ip), vehicle: Klucel (hydroxypropylcellulose) (HPC) 99 % of control | dose: 100.0 mg/kg/injection, schedule: Q04DX003 (ip), vehicle: Klucel (hydroxypropylcellulose) (HPC) 101 % of control

O=S(=O)(/N=C1/c2ccccc2/C(=N/S(=O)(=O)c2ccccc2)C2CC=CCC12)c1ccccc1 (stereo not given)
inactive: dose: 6.25 mg/kg/injection, schedule: Q01DX001 (ip), vehicle: saline with Tween-80 100 % of control | dose: 12.5 mg/kg/injection, schedule: Q01DX001 (ip), vehicle: saline with Tween-80 95 % of control | dose: 25.0 mg/kg/injection, schedule: Q01DX001 (ip), vehicle: saline with Tween-80 100 % of control
